Measured values as given in patent publication US20210261569A1, “FUSED HETEROCYCLIC DERIVATIVES HAVING SELECTIVE BACE1 INHIBITORY ACTIVITY” (Shionogi & Co., Ltd., priority 2018, published 2021).

Legend:
[1] = biological target: T1, P-gp (MDR1 expressing LLC-PK1 cells) (Homo sapiens, UniProt P08183); experiment: P-gp substrate test; format: in vitro ADME; conditions: MDR1 expressing LLC-PK1 cells vs parent LLC-PK1 cells
T1 construct: host or cells: LLC-PK1 (porcine kidney) cells
Method: 1. MDR1 expressing LLC-PK1 cells and its parent cells were routinely cultured in Medium A (Medium 199 (Invitrogen) supplemented with 10% FBS (Invitrogen), gentamycin (0.05 mg/mL, Invitrogen) and hygromycin B (100 μg/mL, Invitrogen)) at 37° C. under 5% CO2/95% 02 gasses. For the transport experiments, these cells were seeded on Transwell (Registered trademark) insert (96-well, pore size: 0.4 μm, Coaster) at a density of 1.4×10^4 cells/insert and added Medium B (Medium 199 supplemented with 10% FBS and gentamycin at 0.05 mg/mL) to the feeder tray. These cells were incubated in a CO2 incubator (5% CO2/95% 02 gasses, 37° C.) and replace apical and basolateral culture medium every 48-72 hr after seeding. These cells were used between 4 and 6 days after seeding. 2. The medium in the culture insert seeded with MDR1 expressing cells or parent cells were removed by aspiration and rinsed by HBSS. The apical side (140 μL) or basolateral side (175 μL) was replaced with transport buffer containing reference substrates and the present invention and then an aliquot (50 μL) of transport buffer in the donor side was collected to estimate initial concentration of reference substrate and the present invention. After incubation for designed time at 37° C., an aliquot (50 μL) of transport buffer in the donor and receiver side were collected. Assay was performed by duplicate or triplicate. 3. Reference substrate and the present invention in the aliquot was quantified by LC/MS/MS.
Permeated amounts across monolayers of MDR1 expressing and parent cells were determined, and permeation coefficients (Pe) were calculated using Excel 2003 from the following equitation:
Pe (cm/sec)=Permeated amount (pmol)/area of cell membrane (cm^2)/initial concentration (nM)/incubation time (sec) Where, permeated amount was calculated from permeation concentration (nM, concentration of the receiver side) of the substance after incubation for the defined time (sec) multiplied by volume. (mL) and area of cell membrane was used 0.1433 (cm2). The efflux ratio was calculated using the following equation:
Efflux Ratio=Basolateral-to-Apical Pe/Apical-to-Basolateral Pe
The net flux was calculated using the following equation:
Net flux=Efflux Ratio in MDR1 expressing cells/Efflux Ratio in parent cells

[2] = biological target: T2, recombinant BACE2 protein (Homo sapiens, UniProt Q9Y5Z0); experiment: BACE2 biochemical FRET based assay; conditions: pH 5.0, 450 min at room temperature
T2 construct: recombinant BACE2 protein in a final concentration of 0.4 μg/mL
T2 sequence (Q9Y5Z0 63-518): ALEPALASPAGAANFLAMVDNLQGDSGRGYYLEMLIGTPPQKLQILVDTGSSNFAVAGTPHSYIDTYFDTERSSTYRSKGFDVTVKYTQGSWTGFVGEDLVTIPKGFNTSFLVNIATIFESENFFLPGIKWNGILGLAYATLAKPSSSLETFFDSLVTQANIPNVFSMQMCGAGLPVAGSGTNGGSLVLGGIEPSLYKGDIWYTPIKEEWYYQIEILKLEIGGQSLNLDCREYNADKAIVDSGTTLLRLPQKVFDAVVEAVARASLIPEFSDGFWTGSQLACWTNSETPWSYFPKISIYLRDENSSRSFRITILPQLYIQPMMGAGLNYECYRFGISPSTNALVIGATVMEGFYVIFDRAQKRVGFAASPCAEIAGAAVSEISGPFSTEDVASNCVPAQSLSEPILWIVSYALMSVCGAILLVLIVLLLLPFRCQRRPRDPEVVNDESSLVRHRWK
Excerpt: (§1) This assay is a Fluorescence Resonance Energy Transfer Assay (FRET) based assay. The substrate for this assay contains the ‘Swedish’ Lys-Met/Asn-Leu mutation of the amyloid precursor protein (APP) beta-secretase cleavage site. This substrate also contains two fluorophores: (7-methoxycoumarin-4-yl) acetic acid (Mca) is a fluorescent donor with excitation wavelength at 320 nm and emission at 405 nm and 2,4-dinitrophenol (Dnp) is a proprietary quencher acceptor. […] Upon cleavage by the beta-secretase, the fluorophore Mca is separated from the quenching group Dnp, restoring the full fluorescence yield of the donor. The increase in fluorescence is linearly related to the rate of proteolysis.
Briefly in a 384-well format recombinant BACE2 protein in a final concentration of 0.4 μg/mL was incubated for 450 minutes at room temperature with 10 μM substrate in incubation buffer (final concentrations: 33.3 mM Citrate buffer pH 5.0, 0.033% PEG, 2% DMSO) in the absence or presence of compound. Next the amount of proteolysis was directly measured by fluorescence measurement at T=0 and T=450 (excitation at 320 nm and emission at 405 nm). Results were expressed in RFU (Relative Fluorescence Units), as difference between T450 and T0.
(§2) A best-fit curve was fitted by a minimum sum of squares method to the plot of % Controlmin versus compound concentration. From this an IC50 value (inhibitory concentration causing 50% inhibition of activity) can be obtained.

[3] = biological target: T3, recombinant BACE1 protein (Homo sapiens, UniProt P56817); experiment: BACE1 biochemical FRET based assay; conditions: for Selectivity: BACE2 IC50 relative to BACE1 IC50; for IC50: FRET, pH 5.0, 450 min at room temperature
T3 construct: recombinant BACE1 protein in a final concentration of 0.04 μg/mL
T3 sequence (P56817 46-501): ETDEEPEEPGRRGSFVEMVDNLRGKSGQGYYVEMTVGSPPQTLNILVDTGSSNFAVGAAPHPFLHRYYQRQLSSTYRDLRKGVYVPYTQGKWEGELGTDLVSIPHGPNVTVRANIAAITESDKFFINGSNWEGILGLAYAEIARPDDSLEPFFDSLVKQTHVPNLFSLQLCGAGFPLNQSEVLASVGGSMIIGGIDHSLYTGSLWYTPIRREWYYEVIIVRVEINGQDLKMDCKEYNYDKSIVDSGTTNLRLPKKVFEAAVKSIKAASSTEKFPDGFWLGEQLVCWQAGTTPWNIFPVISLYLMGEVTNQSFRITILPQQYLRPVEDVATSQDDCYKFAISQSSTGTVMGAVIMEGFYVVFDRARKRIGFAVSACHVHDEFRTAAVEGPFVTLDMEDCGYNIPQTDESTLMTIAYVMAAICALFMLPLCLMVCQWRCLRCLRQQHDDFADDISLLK
Excerpt: as §1, with “this assay is an APP derived 13 amino acids peptide that contains the” for “this assay contains the”, “protein (APP) beta-site secretase cleavage site.” for “protein (APP) beta-secretase cleavage site.”, “cleavage by BACE1, the fluorophore” for “cleavage by the beta-secretase, the fluorophore”
Briefly in a 384-well format recombinant BACE1 protein in a final concentration of 0.04 μg/mL was incubated for 450 minutes at room temperature with 10 μm substrate in incubation buffer (final concentrations: 33.3 mM Citrate buffer pH 5.0, 0.033% PEG, 3% DMSO) in the absence or presence of compound. Next the amount of proteolysis was directly measured by fluorescence measurement at T=0′-120′ and T=450′ (excitation at 320 nm and emission at 405 nm). Results were expressed in RFU (Relative Fluorescence Units), as difference between T450 and Tx (Tx is chosen depending on the reaction speed between 0 and 120 minutes).
as §2

T1 sequence (P08183 whole entry): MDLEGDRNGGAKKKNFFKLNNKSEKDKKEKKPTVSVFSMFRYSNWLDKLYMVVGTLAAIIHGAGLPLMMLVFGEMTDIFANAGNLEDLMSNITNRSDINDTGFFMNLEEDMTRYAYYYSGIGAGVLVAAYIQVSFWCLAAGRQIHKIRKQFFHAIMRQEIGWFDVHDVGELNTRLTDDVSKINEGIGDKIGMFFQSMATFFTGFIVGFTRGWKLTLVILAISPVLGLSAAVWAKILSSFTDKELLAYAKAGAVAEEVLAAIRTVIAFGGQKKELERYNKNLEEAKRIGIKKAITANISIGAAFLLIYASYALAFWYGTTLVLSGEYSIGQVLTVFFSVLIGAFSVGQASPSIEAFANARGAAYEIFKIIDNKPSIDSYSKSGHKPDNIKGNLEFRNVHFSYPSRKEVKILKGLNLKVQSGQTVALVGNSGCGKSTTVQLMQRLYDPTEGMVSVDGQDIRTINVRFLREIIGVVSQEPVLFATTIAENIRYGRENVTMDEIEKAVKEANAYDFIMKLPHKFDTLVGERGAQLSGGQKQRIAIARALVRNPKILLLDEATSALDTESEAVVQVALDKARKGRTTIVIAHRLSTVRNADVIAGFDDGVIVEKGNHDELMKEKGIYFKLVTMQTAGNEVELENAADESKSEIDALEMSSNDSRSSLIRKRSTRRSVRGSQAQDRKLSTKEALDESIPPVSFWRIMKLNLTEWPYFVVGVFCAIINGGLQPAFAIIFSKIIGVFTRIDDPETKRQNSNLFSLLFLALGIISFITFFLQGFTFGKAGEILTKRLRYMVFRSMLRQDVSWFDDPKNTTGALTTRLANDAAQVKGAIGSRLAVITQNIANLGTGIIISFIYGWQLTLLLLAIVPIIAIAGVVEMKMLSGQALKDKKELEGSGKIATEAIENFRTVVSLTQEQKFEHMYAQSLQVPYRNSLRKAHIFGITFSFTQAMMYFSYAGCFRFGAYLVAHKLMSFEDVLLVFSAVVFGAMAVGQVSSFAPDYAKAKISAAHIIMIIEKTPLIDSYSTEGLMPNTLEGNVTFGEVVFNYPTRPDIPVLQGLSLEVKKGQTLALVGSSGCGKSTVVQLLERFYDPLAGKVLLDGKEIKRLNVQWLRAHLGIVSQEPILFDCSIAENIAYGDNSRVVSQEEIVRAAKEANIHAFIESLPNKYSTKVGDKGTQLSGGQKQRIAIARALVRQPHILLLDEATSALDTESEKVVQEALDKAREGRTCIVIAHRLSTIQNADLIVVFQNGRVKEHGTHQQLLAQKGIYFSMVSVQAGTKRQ

Compound: C[C@@H]1OC[C@H]2[C@@H]1OC(N)=N[C@]2(CF)c1cc(NC(=O)c2cnc(OCF)cn2)ccc1F [Compound I-082]
- P-gp ER ratio [1]: 3.6
- IC50 [2]: 0.309 µM
- Selectivity [3]: 28
- IC50 [3]: 0.011 µM

Compound: NC1=N[C@](CF)(c2cc(NC(=O)c3cnc(OCF)cn3)ccc2F)[C@H]2[C@H](CC(F)F)OC[C@H]2O1 [Compound I-116]
- P-gp ER ratio [1]: 5.2
- IC50 [2]: 0.389 µM
- Selectivity [3]: 31
- IC50 [3]: 0.013 µM
